Data published in paper PMC3944389, “Differential Neuroprotective Effects of 5′-Deoxy-5′-Methylthioadenosine” (PLoS ONE, 2014).

Tests used:
[1] = test system: Sprague-Dawley rats, pilocarpine-induced status epilepticus; assay: Pilocarpine-induced status epilepticus (SE) model; type: in vivo, rat
Method: Young adult (175–200 g) male Sprague-Dawley rats from Charles River (Wilmington, MA, US) were divided into four MTA treatment groups, with 9–11 rats per group. In group A, rats were subjected to pilocarpine-induced status epilepticus (SE) as described previously. Following 90 min of continuous seizure activity, SE was stopped by administering a single dose of diazepam (10 mg/kg). The rats were then injected daily for 3 days with either the vehicle alone (2% DMSO in H2O), injecting a volume of body weight x 3.3 (a similar volume as for the MTA treated groups), or MTA (30 mg/kg). Rats were euthanized on day 4 after SE under anesthesia by transcardiac perfusion with 4% paraformaldehyde (PFA) in phosphate-buffered saline. The brains were removed, postfixed in 4% PFA, cryoprotected in 30% sucrose, frozen, and sectioned for histology. In group B, the rats received the same treatment as those in group A (vehicle or MTA 30 mg/kg) except that the rats were perfused on day 30 after SE and a 0,37% sulphide fixative was used for subsequent Timm staining. In group C, the rats were only treated with MTA (30 mg/kg) or the vehicle for 2 days and on the third day, the rats were again subjected to pilocarpine-induced SE. The animals were then treated once daily with MTA (30 mg/kg) or vehicle for a further 3 days, and they were anesthetized and euthanized 4 days after SE. […]
Mouse and rat coronal sections were mounted on glass slides in a 0.2% solution of gelatin in 0.05 M Trizma base [pH 7.6] […] To evaluate sprouting of the zinc-containing mossy fibers in the dentate gyrus inner molecular layer, Timm-stained sections were analyzed by an examiner blinded to experimental condition. […] Twelve samples of pixel density/section were measured in the inner molecular layer using NIH ImageJ, 5 from the lower blade, 5 from the upper blade and 2 from the apex. The average background level (mean of 12 samples/section) was subtracted and a mean pixel density calculated for each animal (n = 4–5/group). […]

[2] = test system: C57Bl mice treated with MPTP; assay: MPTP mouse model of Parkinson's disease, stereological counting of TH+ neurons; type: in vivo; conditions: MTA 30 mg/kg, MSX-3 10 mg/kg (legend: 9 mg/kg), alone or combined; MPTP 30 mg/kg i.p. 5 days
Method: 12-week-old male C57Bl mice from Charles River (Barcelona, Spain) were injected i.p. with 30 mg/kg 1-methyl-4-phenyl-1,2,3,6-tetrahydropyridine (MPTP, Sigma-Aldrich) on five consecutive days. Subsequently, MTA (30 mg/kg) and/or the A2A adenosine receptor (A2AR, 10 mg/kg) antagonist, MSX-3 (Sigma-Aldrich), was administered one day before starting MPTP treatment and 1 h after each MPTP injection (n = 6 in each experimental group). We used mice in the MPTP model because rats are resistant to systemic MPTP administration and thus, the rat MPTP model requires stereotaxic MPTP injection directly into the nigrostriatal fibers. […]
The reference volume was calculated according to Cavalieri principles from images obtained with a 2× objective using a point count array. The cross-sectional area of the nucleus was measured and the reference volume (Vr) for the entire nucleus was estimated using the following equation: [drawing 1] where T is the thickness of the sections, a/p is the area of each point and Pi is the number of points that landed within the area. The region of interest to estimate the area was outlined at low magnification (4×), and the number of labeled neurons was calculated under 100× magnification (with oil immersion) using randomized meander sampling and the optical dissector methods. […]

5′-deoxy-5′-methylthioadenosine [MTA]
mossy fiber sprouting (Timm staining) ([1]; MTA 30 mg/kg pre-SE or post-SE, 30 days after SE): No difference | neurodegeneration and neuronal loss in hippocampal areas (NeuN immunoreactivity) ([1]; MTA 30 mg/kg/day before or after SE, early (3-5 days) and late (30 days) time points): reduced the neurodegeneration and neuronal loss | neuronal loss in the CA3 and CA1 hippocampal areas (stereological counting of NeuN-immunoreactive cells) ([1]; MTA 30 mg/kg/day prior to SE, 30 days after SE): significant reductions | neuroprotection: TH+ neurons in the substantia nigra [2]: not statistically significant
